Literature values as cited in paper PMC9374181 (Toxicology and applied pharmacology, 2022).
Where two headings read alike, the source gives them in different places.

Tests used:
[1] = rat models, IM
[2] = general statement on approved oximes

| Compound | plasma T1/2 [2] | published half-life (published value, no reference given) | Cmax ([1]; 40 mg/kg, ref Green et al., 1986) | plasma T1/2 (ref Cassel and Fosbraey, 1996) | Cmax ([1]; 50 mg/kg, ref Cassel and Fosbraey, 1996) | plasma T1/2 (ref Alioth-Streichenberg et al., 1991) | Cmax ([1]; 50 mg/kg, no reference given) |
| --- | --- | --- | --- | --- | --- | --- | --- |
| C[n+]1ccccc1/C=N/O [Oxime 2-PAM, pralidoxime] | less than 90 min | less than 2 hours | 14500 ng/mL |  |  |  |  |
| NC(=O)c1cc[n+](COC[n+]2ccccc2/C=N/O)cc1 [asoxime] | less than 90 min |  |  | 48 min | 900 ng/mL |  |  |
| O/N=C/c1cc[n+](COC[n+]2ccc(/C=N/O)cc2)cc1 [obidoxime] | less than 90 min |  |  |  |  | 35 min | 26000 ng/mL |
